In one experiment the test system is SNU16 cells. As to the kind of experiment: SNU16 Cancer Cell Line Proliferation Assay. Particulars: Homo sapiens; SNU-16 cells. Type of experiment: cell-based. A digest of the protocol:
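SNU16 cells were seeded, held 24 h at 37 degrees, then dosed with an 11-point 3-fold dilution series prepared from a 10 mM DMSO stock. After 96 h incubation, viability was read by CellTiter Glo luminescence.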

The next experiment deals with FGFR2 (Homo sapiens (Human), UniProt P21802). In words: FGFR2 Biochemical Caliper Assay. The method, then: Compounds of the present invention were also tested in a FGFR2 Biochemical Caliper Assay. Compounds were prepared in 10 mM DMSO solution and serially diluted into 11 concentrations by 3-fold dilution. […] 5 uL of ATP solution (100 uM) was added to start the reaction and the plate was incubated for 90 minutes, then 70 uL of stopping buffer (0.5M EDTA) was added to terminate the reaction. Each well was analyzed using EZ reader.
Chain of FGFR2 (P21802 22-821): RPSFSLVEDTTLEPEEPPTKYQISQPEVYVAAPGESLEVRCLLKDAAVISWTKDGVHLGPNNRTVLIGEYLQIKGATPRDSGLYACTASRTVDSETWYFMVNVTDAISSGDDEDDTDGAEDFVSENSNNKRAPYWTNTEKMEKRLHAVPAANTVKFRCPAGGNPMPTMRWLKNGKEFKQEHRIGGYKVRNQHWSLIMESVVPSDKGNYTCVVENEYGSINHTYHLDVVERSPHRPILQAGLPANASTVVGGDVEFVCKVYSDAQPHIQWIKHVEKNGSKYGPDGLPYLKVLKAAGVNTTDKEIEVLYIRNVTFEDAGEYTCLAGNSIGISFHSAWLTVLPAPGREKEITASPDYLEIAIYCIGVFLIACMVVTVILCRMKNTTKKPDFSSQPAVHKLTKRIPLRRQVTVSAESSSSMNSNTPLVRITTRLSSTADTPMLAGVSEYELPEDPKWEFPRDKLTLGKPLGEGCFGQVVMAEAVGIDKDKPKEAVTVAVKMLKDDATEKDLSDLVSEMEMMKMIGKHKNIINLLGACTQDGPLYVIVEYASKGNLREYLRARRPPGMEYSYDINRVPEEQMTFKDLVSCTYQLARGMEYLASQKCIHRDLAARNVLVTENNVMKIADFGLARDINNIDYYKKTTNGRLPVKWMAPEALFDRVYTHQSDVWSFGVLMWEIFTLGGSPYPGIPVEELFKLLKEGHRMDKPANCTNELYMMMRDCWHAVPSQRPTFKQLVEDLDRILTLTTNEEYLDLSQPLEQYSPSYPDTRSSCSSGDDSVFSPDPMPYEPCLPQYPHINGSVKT

On to `C=C(C)C(=O)Nc1ccc(-c2c(-c3ccc(C(=O)N4CC5CCC(C5)C4)cc3)c3c(N)ncnc3n2C)cc1` [Example 299], for which the IC50 (in general, the point on the concentration scale where inhibition reaches its midpoint) in the experiment on SNU16 cells was at most 100 nM; at FGFR2 it was under 100 nM.

Regarding `C=C(C)C(=O)Nc1ccc(-c2c(-c3ccc(C(=O)N[C@@H]4CCOC4)cc3)c3c(N)ncnc3n2C)cc1` [Example 300], the IC50 is at most 100 nM in the experiment with SNU16 cells and under 100 nM against FGFR2.

As for `C=C(C)C(=O)Nc1ccc(-c2c(-c3ccc(S(=O)(=O)NC4COC4)cc3)c3c(N)ncnc3n2C)cc1` [Example 301], the IC50 in the experiment with SNU16 cells is 250 to 1000 nM; against FGFR2 it was 1000 to 100000 nM.

For `C=CC(=O)Nc1ccc(-c2c(C3CCC(C(=O)NC)CC3)c3c(N)ncnc3n2C)cc1` (stereo not drawn) [Example 302], the IC50 in the experiment with SNU16 cells was 250 to 1000 nM; at FGFR2 it was 1000 to 100000 nM.

As for `C=C(C)C(=O)Nc1ccc(-c2c(-c3ccc(S(=O)(=O)NCC(C)C)cc3)c3c(N)ncnc3n2C)cc1` [Example 303], the IC50 in the experiment with SNU16 cells and against FGFR2 was 250 to 1000 nM each time.

Regarding `C=C(C)C(=O)Nc1ccc(-c2c(-c3ccc(C(=O)N(C)CC(F)(F)F)cc3)c3c(N)ncnc3n2C)cc1` [Example 304], the values for the IC50 with SNU16 cells and on FGFR2 were at most 100 nM and under 100 nM, respectively.

As to `C=C(C)C(=O)Nc1ccc(-c2c(-c3ccc(C(=O)NCC(F)F)cc3)c3c(N)ncnc3n2C)cc1` [Example 305], the IC50 with SNU16 cells was at most 100 nM; on FGFR2, under 100 nM.

With `C=C(C)C(=O)Nc1ccc(-c2c(-c3ccc(C(=O)NCC(C)(C)OC)cc3)c3c(N)ncnc3n2C)cc1` [Example 306], the figures for the IC50 with SNU16 cells and against FGFR2 were at most 100 nM and under 100 nM, respectively.

Turning to `C=C(C)C(=O)Nc1ccc(-c2c(-c3ccc(C(=O)NCC(C)C)cc3)c3c(N)ncnc3n2C)cc1` [Example 307], the results for the IC50 in the experiment with SNU16 cells and on FGFR2 were at most 100 nM and under 100 nM, respectively.

As for `C=C(C)C(=O)Nc1ccc(-c2c(-c3ccc(C(=O)NC4CCCC4O)cc3)c3c(N)ncnc3n2C)cc1` (stereo not drawn) [Example 308], the IC50 is 100 to 250 nM in the experiment with SNU16 cells and under 100 nM at FGFR2.

Consider `C=C(C)C(=O)Nc1ccc(-c2c(-c3ccc(S(=O)(=O)NC4CCCC4O)cc3)c3c(N)ncnc3n2C)cc1` (stereo not drawn) [Example 309], for which the IC50 with SNU16 cells was 250 to 1000 nM; at FGFR2, 1000 to 100000 nM.

For `C=C(C)C(=O)Nc1ccc(-c2c(-c3ccc(S(=O)(=O)NCC(C)(C)O)cc3)c3c(N)ncnc3n2C)cc1` [Example 310], the IC50 in the experiment with SNU16 cells lay within 250 to 1000 nM; against FGFR2 it was 1000 to 100000 nM.

Consider `C=C(C)C(=O)Nc1ccc(-c2c(-c3ccc(S(=O)(=O)NC4CCC4)cc3)c3c(N)ncnc3n2C)cc1` [Example 311], for which the IC50 with SNU16 cells and against FGFR2 was 250 to 1000 nM throughout.

Regarding `C=C(C)C(=O)Nc1ccc(-c2c(-c3ccc(S(=O)(=O)N(C)C4CCCC4)cc3)c3c(N)ncnc3n2C)cc1` [Example 312], the IC50 with SNU16 cells and on FGFR2 was 250 to 1000 nM in each case.

In the case of `C=C(C)C(=O)Nc1ccc(-c2c(-c3ccc(-c4ncco4)nc3)c3c(N)ncnc3n2C)cc1` [Example 313], the IC50 with SNU16 cells fell in the range of 250 to 1000 nM; on FGFR2, 1000 to 100000 nM.

For the molecule `C=C(C)C(=O)Nc1ccc(-c2c(-c3ccc(S(=O)(=O)CC4CCCC4)cc3)c3c(N)ncnc3n2C)cc1` [Example 314], the IC50 in the experiment on SNU16 cells and at FGFR2 was 250 to 1000 nM each time.

Take `C=C(C)C(=O)Nc1ccc(-c2c(-c3ccc(S(=O)(=O)CCC(F)(F)F)cc3)c3c(N)ncnc3n2C)cc1` [Example 315]: the IC50 in the experiment on SNU16 cells and against FGFR2 was 250 to 1000 nM throughout.

As for `C=C(C)C(=O)Nc1ccc(-c2c(-c3ccc(S(=O)(=O)N(C)CC(F)(F)F)cc3)c3c(N)ncnc3n2C)cc1` [Example 316], the IC50 with SNU16 cells and against FGFR2 was 250 to 1000 nM throughout.

On to `C=C(C)C(=O)Nc1ccc(-c2c(-c3ccc(S(=O)(=O)NC4CCCC4OC)cc3)c3c(N)ncnc3n2C)cc1` (stereo not drawn) [Example 318], for which the figures for the IC50 in the experiment on SNU16 cells and against FGFR2 were 250 to 1000 nM and 1000 to 100000 nM, respectively.

Regarding `C=C(C)C(=O)Nc1ccc(-c2c(-c3ccc(C(=O)NCC4CC4)cc3)c3c(N)ncnc3n2C)cc1` [Example 320], the IC50 is at most 100 nM in the experiment with SNU16 cells and under 100 nM against FGFR2.

As to `C=C(C)C(=O)Nc1ccc(-c2c(-c3ccc(C(=O)NC4CCCC4OC)cc3)c3c(N)ncnc3n2C)cc1` (stereo not drawn) [Example 321], the IC50 with SNU16 cells and on FGFR2 was 100 to 250 nM throughout.

With `C=C(C)C(=O)Nc1ccc(-c2c(-c3ccc(C(=O)N(C)Cc4ncon4)cc3)c3c(N)ncnc3n2C)cc1` [Example 324], the figures for the IC50 with SNU16 cells and against FGFR2 were 250 to 1000 nM and 1000 to 100000 nM, respectively.

With `C=C(C)C(=O)Nc1ccc(-c2c(-c3ccc(C(=O)NC4CCCOC4)cc3)c3c(N)ncnc3n2C)cc1` (stereo not drawn) [Example 327], the IC50 is 100 to 250 nM in the experiment on SNU16 cells and under 100 nM on FGFR2.

`C=C(C)C(=O)Nc1ccc(-c2c(-c3ccc(C(=O)N[C@@H](CO)CC4CC4)cc3)c3c(N)ncnc3n2C)cc1` [Example 329]: the IC50 with SNU16 cells is 250 to 1000 nM; against FGFR2 it was under 100 nM.

As for `C=C(C)C(=O)Nc1ccc(-c2c(-c3ccc(C(=O)NCC(C)(C)CO)cc3)c3c(N)ncnc3n2C)cc1` [Example 331], the half-maximal inhibitory concentration (IC50) was at most 100 nM with SNU16 cells and under 100 nM against FGFR2.

On to `C=C(C)C(=O)Nc1ccc(-c2c(-c3ccc(C(=O)NCC(O)C(F)(F)F)cc3)c3c(N)ncnc3n2C)cc1` (stereo not drawn) [Example 332], for which the values for the IC50 in the experiment with SNU16 cells and on FGFR2 were 250 to 1000 nM and under 100 nM, respectively.

Regarding `C=C(C)C(=O)Nc1ccc(-c2c(-c3ccc(C(=C)N[C@H]4CCOC4)cc3)c3c(N)ncnc3n2C)cc1` [Example 335], the IC50 with SNU16 cells and at FGFR2 was 250 to 1000 nM in each case.

Consider `C=C(C)C(=O)Nc1ccc(-c2c(-c3ccc(C(=O)NCC#N)cc3)c3c(N)ncnc3n2C)cc1` [Example 337], for which the IC50 with SNU16 cells and at FGFR2 was 250 to 1000 nM in each case.

As to `C=C(C)C(=O)Nc1ccc(-c2c(-c3ccc(C(=O)NCC4(F)COC4)cc3)c3c(N)ncnc3n2C)cc1` [Example 338], the figures for the IC50 with SNU16 cells and on FGFR2 were at most 100 nM and under 100 nM, respectively.

As to `C=C(C)C(=O)Nc1ccc(-c2c(-c3ccc(Oc4ncc(C)cn4)cc3)c3c(N)ncnc3n2C)cc1` [Example 339], the values for the IC50 with SNU16 cells and at FGFR2 were at most 100 nM and 100 to 250 nM, respectively.

As to `C=C(C)C(=O)Nc1ccc(-c2c(-c3ccc(Oc4cccc(C)n4)cc3)c3c(N)ncnc3n2C)cc1F` [Example 340], the IC50 with SNU16 cells was at most 100 nM; at FGFR2, under 100 nM.

Take `C=C(C)C(=O)Nc1ccc(-c2c(-c3ccc(Oc4cccc(C)n4)cc3)c3c(N)ncnc3n2C)c(F)c1` [Example 341]: the IC50 was at most 100 nM in the experiment on SNU16 cells and under 100 nM against FGFR2.

Consider `C=C(C)C(=O)Nc1ccc(-c2c(-c3ccc(Oc4cccc(OC)n4)cc3)c3c(N)ncnc3n2C)cc1` [Example 342], for which the IC50 was at most 100 nM with SNU16 cells and under 100 nM against FGFR2.

In the case of `C=C(C)C(=O)Nc1ccc(-c2c(-c3ccc(Oc4cccc(C)n4)cc3)c3c(N)ncnc3n2C)cc1OC` [Example 344], the results for the IC50 with SNU16 cells and against FGFR2 were at most 100 nM and 100 to 250 nM, respectively.

For `C=C(C)C(=O)Nc1ccc(-c2c(-c3ccc(C(=O)N[C@@H](COC)C4CC4)cc3)c3c(N)ncnc3n2C)cc1` [Example 346], the IC50 with SNU16 cells is at most 100 nM; against FGFR2, under 100 nM.

Consider `C=C(C)C(=O)Nc1ccc(-c2c(-c3ccc(C(=O)NCC4CCO4)cc3)c3c(N)ncnc3n2C)cc1` (stereo not drawn) [Example 348], for which the IC50 is 250 to 1000 nM in the experiment with SNU16 cells and under 100 nM at FGFR2.

Regarding `C=C(C)C(=O)Nc1ccc(-c2c(-c3ccc(C(=O)NCC4(OC)CCC4)cc3)c3c(N)ncnc3n2C)cc1` [Example 351], the IC50 was at most 100 nM with SNU16 cells and under 100 nM at FGFR2.

As to `C=C(C)C(=O)Nc1ccc(-c2c(-c3ccc(C(=O)NC4C5COCC54)cc3)c3c(N)ncnc3n2C)cc1` (stereo not drawn) [Example 352], the IC50 with SNU16 cells and on FGFR2 was 250 to 1000 nM throughout.

As for `C=C(C)C(=O)Nc1ccc(-c2c(-c3ccc(C(=O)N4CCC[C@H](OC)C4)cc3)c3c(N)ncnc3n2C)cc1` [Example 353], the IC50 lay in the range of 250 to 1000 nM with SNU16 cells and 1000 to 100000 nM at FGFR2.

As to `C=C(C)C(=O)Nc1ccc(-c2c(-c3ccc(C(=O)N4CCCC4)cc3)c3c(N)ncnc3n2C)cc1OC` [Example 354], the IC50 lay in the range of 250 to 1000 nM with SNU16 cells and 1000 to 100000 nM on FGFR2.

In the case of `C=C(C)C(=O)Nc1ccc(-c2c(-c3ccc(C(=O)N4CCCC4)cc3)c3c(N)ncnc3n2C)c(F)c1` [Example 355], the figures for the IC50 with SNU16 cells and on FGFR2 were at most 100 nM and under 100 nM, respectively.

In the case of `C=C(C)C(=O)Nc1ccc(-c2c(-c3ccc(C(=O)N4CCC[C@H]4COC)cc3)c3c(N)ncnc3n2C)cc1` [Example 357], the IC50 with SNU16 cells was at most 100 nM; at FGFR2 it was under 100 nM.

Turning to `C=C(C)C(=O)Nc1ccc(-c2c(-c3ccc(C(=O)N4CCC[C@@H]4COC)cc3)c3c(N)ncnc3n2C)cc1` [Example 361], the IC50 in the experiment with SNU16 cells and on FGFR2 was 250 to 1000 nM in each case.

Take `C=C(C)C(=O)Nc1ccc(-c2c(-c3ccc(C(=O)NCC4CCOC4)cc3)c3c(N)ncnc3n2C)cc1` (stereo not drawn) [Example 362]: the 50% inhibitory concentration (IC50) in the experiment on SNU16 cells was 250 to 1000 nM; against FGFR2 it was under 100 nM.

Consider `C=C(C)C(=O)Nc1ccc(-c2c(-c3ccc(C(=O)NC4(COC)CCC4)cc3)c3c(N)ncnc3n2C)cc1` [Example 365], for which the IC50 was at most 100 nM in the experiment on SNU16 cells and under 100 nM against FGFR2.

For the molecule `C=C(C)C(=O)Nc1ccc(-c2c(-c3ccc(C(=O)N(C)CC(C)(C)O)cc3)c3c(N)ncnc3n2C)cc1` [Example 368], the IC50 with SNU16 cells and against FGFR2 was 250 to 1000 nM in each case.

In the case of `C=C(C)C(=O)Nc1ccc(-c2c(-c3ccc(C(=O)N4CCCCC4COC)cc3)c3c(N)ncnc3n2C)cc1` (stereo not drawn) [Example 369], the IC50 in the experiment on SNU16 cells was at most 100 nM; at FGFR2, under 100 nM.

`C=C(C)C(=O)Nc1ccc(-c2c(-c3ccc(Oc4cccc(C)n4)cc3)c3c(N)ncnc3n2CCOC)cc1` [Example 370]: the IC50 is at most 100 nM in the experiment with SNU16 cells and under 100 nM against FGFR2.

The record behind these values is patent US11780845B2 (Relay Therapeutics, Inc., priority 2019, dated 2023).
